Values joined by “and” are separate entries in the source; they are usually repeats but may differ in a detail not shown here. Identical values can stand only once. Like-named read-outs stand apart in the source and are kept apart here.
Experiments:
[1] = tested on: human P450 51A1; test: Kinetic modeling (KinTek Explorer) of the single-turnover time course; conditions: for k^+ of sterol binding to P450 51A1 (kon) used for fitting: all kon set at this value; for k^- of oxidation step of the P450-sterol complex: irreversible, set to zero; for k^+ of oxidation step of the P450-sterol complex / k^- of sterol binding to P450 51A1 (koff) used for fitting: optimized model; for k^+ of oxidation step of the P450-sterol complex: label = sterol oxidized in the step
From the text: The initial koff rate constants used in fitting were the koff rates measured in the stopped-flow trap experiments (Fig. 9). All three oxidation reactions are irreversible, and thus k-2, k-4, and k-6 were set to zero.
Data were imported into KinTek Explorer software (v. 11.01, KinTek, https://kintekcorp.com/software) ([63], [64]) as txt files and processed using an Apple computer (operating system 11.6.2).

[2] = molecular target: T1, human P450 51A1 (Homo sapiens, UniProt Q16850); test: Steady-state LC-UV assay of sterol oxidation to dihydro FF-MAS by reconstituted P450 51A1; conditions: for kcat relative to dihydrolanosterol / kcat/Km relative to dihydrolanosterol: oxidation to dihydro FF-MAS
T1 sequence (Q16850 1-509): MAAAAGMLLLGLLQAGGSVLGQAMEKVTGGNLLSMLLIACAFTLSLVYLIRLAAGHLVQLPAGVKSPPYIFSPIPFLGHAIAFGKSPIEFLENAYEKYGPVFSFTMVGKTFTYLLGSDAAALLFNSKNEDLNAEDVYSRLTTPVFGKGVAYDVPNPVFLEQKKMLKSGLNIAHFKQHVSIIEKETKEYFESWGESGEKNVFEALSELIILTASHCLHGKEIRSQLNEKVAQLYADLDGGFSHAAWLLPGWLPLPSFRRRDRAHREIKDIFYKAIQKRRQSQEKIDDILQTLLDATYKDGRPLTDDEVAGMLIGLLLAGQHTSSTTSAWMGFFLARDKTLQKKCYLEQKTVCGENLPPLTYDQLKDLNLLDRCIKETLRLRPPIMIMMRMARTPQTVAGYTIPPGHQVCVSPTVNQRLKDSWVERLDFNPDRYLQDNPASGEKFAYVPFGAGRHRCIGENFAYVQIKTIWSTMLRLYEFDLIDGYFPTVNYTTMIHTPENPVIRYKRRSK
Protocol: Steady-state incubations (500 μl) were generally done at 37 °C with 0.025 μM P450 51A1, 0.10 μM NADPH-P450 reductase, 100 μM L-α-dilauroyl-sn-glycero-3-phosphocholine, 50 mM potassium phosphate buffer (pH 7.4), 10% (v/v) glycerol, and an indicated concentration of each sterol (in 45% (w/v) HPCD). […] The sterols (stored at 4 °C) were prepared as described above and were heated to 37 °C and sonicated prior to use. Sterol working stocks were diluted in HPCD to ensure a constant concentration of cyclodextrin in each reaction. […] Accordingly, all reactions were done with this concentration of glycerol.
Reactions were preincubated (5 min, 37 °C) prior to initiation with an NADPH-regenerating system (0.5 mM NADP^+, 10 mM glucose 6-phosphate, and 2 μg ml^−1 glucose 6-phosphate dehydrogenase) ([60]) and were stopped after 5 min with the addition of CH2Cl2 (5 ml). (The NADPH-generating system, in addition to lower cost than NADPH, drives the reaction to avoid inhibition of the reductase by accumulated NADP^+). For the 14α-aldehyde, the times of preincubation and reaction were reduced (to 2 min and 1 min, respectively). The quenched mixture was centrifuged (2000g, 5 min), and 4 ml of the bottom (organic) layer was transferred to vials and brought to dryness under a stream of N2 gas. The dried residue was resuspended in CH3OH (100 μl) and was analyzed by UPLC using a 2.1 mm × 100 mm (1.7 μm) octadecylsilane (C18) column (held at 25 °C) and a Waters Acquity UPLC system. Samples (4 °C) were injected (10 μl) at a flow rate of 0.20 ml min^−1 using an isocratic mobile phase of CH3CN (only). The product (FF-MAS) was detected using a Waters Acquity photodiode array detector set at 250 nm (Fig. 4B). Data were processed using the MassLynx software (http://www.waters.com/waters/en_US/MassLynx-Mass-Spectrometry-Software-/nav.htm?cid=513164&locale=en_US), and the amount of product formed was calculated by comparison to a twelve-point dihydro FF-MAS standard curve. Determination of kcat and Km for each reaction was carried out by fitting the data to a Michaelis–Menten hyperbola, which was done using GraphPad Prism.
Incubations were run in triplicate, and the mean values (±SD) were calculated and plotted. The linear regression fits include the Prism error estimates for internal fitting (SE).

[3] = tested on: rat liver microsomal systems; parameters: method as in PMID 3514778; conditions: rat liver microsomes fortified with cyanide, 2 h; cited from earlier work
[4] = molecular target: T1, human P450 51A1; test: Spectral (difference spectroscopy) Kd estimates of P450 51A1-sterol complexes; format: binding; parameters: made in house; host or cells: Escherichia coli
Protocol: Kd values were estimated by difference spectroscopy. P450 51A1 (1.0 μM) was in each of two glass cuvettes (in 100 mM potassium phosphate buffer, pH 7.4) and a baseline was recorded (OLIS-Amino DW2a). Aliquots of a solution of each sterol–HPCD complex were added to the sample cuvette and an equivalent amount of HPCD was added to the reference cuvette, and spectra were recorded. The time between the collection of individual spectra was ∼3 min. The maximum absorbance difference (usually ΔA390-A418) was plotted versus the nominal concentration of added sterol, and the data were fit to hyperbolae in GraphPad Prism software (GraphPad, https://www.graphpad.com), using a quadratic equation to correct the ligand concentration for the enzyme-bound concentration (used as Y=B+(A/2)∗(1/E)∗((Kd+E+X)-sqrt((Kd + E+X)^∧2-(4∗E∗X)) in Prism software). The linear regression fits include the internal error estimates (SE).

[5] = Estimation of Kd for HPCD-dihydrolanosterol complex (OD450 light scattering); format: physicochemical; conditions: pH 7.4, 2% C2H5OH, 23 °C, 16 h; two assays
[6] = 1.0 μM P450 51A1, quadratic fit
[7] = 1.0 μM P450 51A1, quadratic fit, read-out: Kd

Compound: CC(C)CCCC(C)[C@H]1CC[C@@]2(C=O)C3=C(CC[C@]12C)[C@@]1(C)CC[C@H](O)C(C)(C)C1CC3 (stereo partly drawn) [14α-CHO dihydrolanosterol, 24,25-dihydro-14α-formyl lanosterol]
- k^+ of sterol binding to P450 51A1 (kon) used for fitting [1]: 2e+06 M⁻¹ s⁻¹
- k^- of oxidation step of the P450-sterol complex [1]: 0
- k^+ of oxidation step of the P450-sterol complex [1]: 2.5 s⁻¹
- kcat relative to dihydrolanosterol [2]: about 3 fold
- kcat/Km relative to dihydrolanosterol [2]: about 3 fold
- Rate of FF-MAS formation (replicates) ([2]; substrate 0.25 µM, listed as 14-CHO dihydrolanosterol): 2.969 min⁻¹ and 3.528 min⁻¹ and 3.126 min⁻¹
- Rate of FF-MAS formation (replicates) ([2]; substrate 0.50 µM, listed as 14-CHO dihydrolanosterol): 7.815 min⁻¹ and 6.139 min⁻¹ and 6.658 min⁻¹
- Rate of FF-MAS formation (replicates) ([2]; substrate 0.75 µM, listed as 14-CHO dihydrolanosterol): 11.25 min⁻¹ and 9.099 min⁻¹ and 10.0823 min⁻¹
- Rate of FF-MAS formation (replicates) ([2]; substrate 1.00 µM, listed as 14-CHO dihydrolanosterol): 13.4 min⁻¹ and 13.67 min⁻¹ and 13.3 min⁻¹
- Rate of FF-MAS formation (replicates) ([2]; substrate 1.50 µM, listed as 14-CHO dihydrolanosterol): 18.85 min⁻¹ and 19.74 min⁻¹ and 19.25 min⁻¹
- Rate of FF-MAS formation (replicates) ([2]; substrate 2.50 µM, listed as 14-CHO dihydrolanosterol): 28.46 min⁻¹ and 30.67 min⁻¹ and 32.21 min⁻¹
- Rate of FF-MAS formation (replicates) ([2]; substrate 5.00 µM, listed as 14-CHO dihydrolanosterol): 52.7446 min⁻¹ and 50.4 min⁻¹ and 54.73 min⁻¹
- Rate of FF-MAS formation (replicates) ([2]; substrate 7.50 µM, listed as 14-CHO dihydrolanosterol): 65.76 min⁻¹ and 62.41 min⁻¹ and 66.11 min⁻¹
- Rate of FF-MAS formation (replicates) ([2]; substrate 10.00 µM, listed as 14-CHO dihydrolanosterol): 70.12 min⁻¹ and 63.34 min⁻¹ and 67.78 min⁻¹
- Rate of FF-MAS formation (replicates) ([2]; substrate 15.00 µM, listed as 14-CHO dihydrolanosterol): 72.18 min⁻¹ and 76.97 min⁻¹ and 69.96 min⁻¹
- accumulation, yield [3]: ~3%
- Kd [4, 6]: sub-μM
- Kd [4, 7]: 0.12 ± 0.03 µM

Compound: CC(C)CCCC(C)[C@H]1CC[C@@]2(CO)C3=C(CC[C@]12C)[C@@]1(C)CC[C@H](O)C(C)(C)C1CC3 (stereo partly drawn) [14α-CH2OH dihydrolanosterol, 24,25-dihydro-14α-CH2OH lanosterol]
- k^+ of sterol binding to P450 51A1 (kon) used for fitting [1]: 2e+06 M⁻¹ s⁻¹
- k^- of oxidation step of the P450-sterol complex [1]: 0
- k^- of sterol binding to P450 51A1 (koff) used for fitting [1]: 0.040 s⁻¹
- k^+ of oxidation step of the P450-sterol complex [1]: 3.5 s⁻¹
- kcat relative to dihydrolanosterol [2]: ~1.5 fold
- kcat/Km relative to dihydrolanosterol [2]: ~1.5 fold
- Rate of FF-MAS formation (replicates) ([2]; substrate 0.25 µM, listed as 14-CH2OH dihydrolanosterol): 1.4 min-1 (2×) and 1.5 min-1
- Rate of FF-MAS formation (replicates) ([2]; substrate 0.50 µM, listed as 14-CH2OH dihydrolanosterol): 3.1 min-1 and 3.0 min-1 (2×)
- Rate of FF-MAS formation (replicates) ([2]; substrate 0.75 µM, listed as 14-CH2OH dihydrolanosterol): 4.7 min⁻¹ and 4.5 min⁻¹ and 3.9 min⁻¹
- Rate of FF-MAS formation (replicates) ([2]; substrate 1.00 µM, listed as 14-CH2OH dihydrolanosterol): 6.5 min-1 (2×) and 7.1 min-1
- Rate of FF-MAS formation (replicates) ([2]; substrate 1.50 µM, listed as 14-CH2OH dihydrolanosterol): 8.9 min⁻¹ and 8.6 min⁻¹ and 11.1 min⁻¹
- Rate of FF-MAS formation (replicates) ([2]; substrate 2.50 µM, listed as 14-CH2OH dihydrolanosterol): 16.2 min⁻¹ and 16.4 min⁻¹ and 16.5 min⁻¹
- Rate of FF-MAS formation (replicates) ([2]; substrate 5.00 µM, listed as 14-CH2OH dihydrolanosterol): 25.1 min⁻¹ and 20.7 min⁻¹ and 25.9 min⁻¹
- Rate of FF-MAS formation (replicates) ([2]; substrate 7.50 µM, listed as 14-CH2OH dihydrolanosterol): 25.1 min⁻¹ and 26.3 min⁻¹ and 27.2 min⁻¹
- Rate of FF-MAS formation (replicates) ([2]; substrate 10.00 µM, listed as 14-CH2OH dihydrolanosterol): 26.4 min⁻¹ and 27.4 min⁻¹ and 26.6 min⁻¹
- Rate of FF-MAS formation (replicates) ([2]; substrate 15.00 µM, listed as 14-CH2OH dihydrolanosterol): 29.2 min⁻¹ and 33.0 min⁻¹ and 31.0 min⁻¹
- accumulation, yield [3]: ~3%
- Kd [4, 6]: sub-μM
- Kd [4, 7]: 0.02 ± 0.04 µM

Compound: CC(C)CCCC(C)[C@H]1CC[C@@]2(C)C3=C(CC[C@]12C)[C@@]1(C)CC[C@H](O)C(C)(C)C1CC3 (stereo partly shown) [dihydrolanosterol, 24,25-dihydrolanosterol]
- k^+ of sterol binding to P450 51A1 (kon) used for fitting [1]: 2e+06 M⁻¹ s⁻¹
- k^- of oxidation step of the P450-sterol complex [1]: 0
- k^- of sterol binding to P450 51A1 (koff) used for fitting [1]: 0.075 s⁻¹
- k^+ of oxidation step of the P450-sterol complex [1]: 7.5 s⁻¹
- kcat ([2]; oxidation to dihydro FF-MAS (epi-dihydro FF-MAS from epi substrate), 37 °C): 0.50 ± 0.03 s⁻¹ and 0.50 s⁻¹
- Rate of FF-MAS formation (replicates) ([2]; substrate 0.25 µM): 0.9 min-1 and 1.0 min-1 (2×)
- Rate of FF-MAS formation (replicates) ([2]; substrate 0.50 µM): 2.4 min-1 (2×) and 2.1 min-1
- Rate of FF-MAS formation (replicates) ([2]; substrate 0.75 µM): 3.4 min⁻¹ and 3.0 min⁻¹ and 3.7 min⁻¹
- Rate of FF-MAS formation (replicates) ([2]; substrate 1.00 µM): 4.1 min⁻¹ and 4.3 min⁻¹ and 3.4 min⁻¹
- Rate of FF-MAS formation (replicates) ([2]; substrate 1.50 µM): 4.8 min⁻¹ and 6.3 min⁻¹ and 5.8 min⁻¹
- Rate of FF-MAS formation (replicates) ([2]; substrate 2.50 µM): 12.8 min⁻¹ and 12.1 min⁻¹ and 9.4 min⁻¹
- Rate of FF-MAS formation (replicates) ([2]; substrate 5.00 µM): 16.4 min-1 and 15.6 min-1 (2×)
- Rate of FF-MAS formation (replicates) ([2]; substrate 7.50 µM): 21.8 min⁻¹ and 17.6 min⁻¹ and 18.3 min⁻¹
- Rate of FF-MAS formation (replicates) ([2]; substrate 10.00 µM): 20.3 min⁻¹ and 21.5 min⁻¹ and 22.5 min⁻¹
- Rate of FF-MAS formation (replicates) ([2]; substrate 15.00 µM): 19.1 min⁻¹ and 23.3 min⁻¹ and 21.3 min⁻¹
- Kd [5]: 6400 µM and 6800 µM
- Kd [4]: 0.23 ± 0.1 µM
- Kd [4, 6]: sub-μM

Reference: PMC10285260, “Processive kinetics in the three-step lanosterol 14α-demethylation reaction catalyzed by human cytochrome P450 51A1” (The Journal of Biological Chemistry, 2023)
